This passage reports inhibition results from PubChem BioAssay AID699 (NMMLSC, 2007).

Molecules are shown by their SMILES. Activity calls are given as the source filed them. No rule for the calls is given here.

fMet-Leu-Phe receptor (Homo sapiens), sequence (P21462 whole entry, looked up): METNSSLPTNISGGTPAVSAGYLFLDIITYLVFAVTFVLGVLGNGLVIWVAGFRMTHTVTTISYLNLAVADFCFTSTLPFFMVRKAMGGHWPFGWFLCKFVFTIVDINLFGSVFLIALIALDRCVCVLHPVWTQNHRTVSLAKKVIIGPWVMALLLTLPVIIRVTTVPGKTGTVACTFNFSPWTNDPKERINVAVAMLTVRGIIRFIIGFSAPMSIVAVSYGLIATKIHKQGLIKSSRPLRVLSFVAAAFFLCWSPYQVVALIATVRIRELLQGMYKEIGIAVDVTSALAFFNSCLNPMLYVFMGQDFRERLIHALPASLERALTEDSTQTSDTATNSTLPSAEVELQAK

The test has as its target fMet-Leu-Phe receptor (Homo sapiens) (UniProt P21462). The test is described as follows: inhibition of ligand-evoked FPR calcium flux – cell-based, calcium response, confirmation (AID 699). The conditions noted are these: FPR1 cells, ligand-induced calcium response inhibition; active compounds read high; concentration not given here.
For the molecule `CC1(C)S[C@@H]2[C@H](NC(=O)Cc3ccccc3)C(=O)N2[C@H]1C(=O)O`, the inhibition was 79.1% (inactive).

As for `CCCOc1ccc(C2C(C(=O)c3ccco3)=C(O)C(=O)N2CCCn2ccnc2)cc1` (centres undefined), the inhibition is 98.4%.

Regarding `CCC(=O)Nc1c(C#N)c2nc3ccccc3nc2n1-c1ccccc1C`, the inhibition was 91.7%.

As for `O=C1C(C23CC4CC(CC(C4)C2)C3)C(=O)N(c2ccccc2)N1c1ccccc1`, the inhibition is -0% (inactive).

`COCCCN1C(=O)C(O)=C(C(=O)c2ccco2)C1c1ccccc1` (centres undefined): the inhibition was 56.7% (inactive).

`CCOc1ccc(C2C(C(=O)c3ccco3)=C(O)C(=O)N2CCCn2ccnc2)cc1` (centres undefined): the inhibition was 23.6% (inactive).

With `COC(=O)c1[nH]c(C)c(/C(O)=C2\C(=O)C(=O)N(CCCN3CCOCC3)C2c2ccccn2)c1C` (centres undefined), the inhibition is 26.5% (inactive).

For `CCCOc1ccc(C2C(C(=O)c3ccc(C)o3)=C(O)C(=O)N2CCCn2ccnc2)cc1` (centres undefined), the inhibition was 21.4% (inactive).

`C=CCOc1cccc(C2C(C(=O)c3ccco3)=C(O)C(=O)N2CCN2CCOCC2)c1` (centres undefined): the inhibition is 102%.

As to `COc1ccccc1-c1c(C)oc2cc(OC(=O)c3ccco3)ccc2c1=O`, the inhibition is 83.2% (inactive).

As to `Cc1[nH]n2c(=O)c(C#N)c(-c3ccccc3)nc2c1-c1ccccc1`, the inhibition is 104%.

Turning to `COc1ccc(OC)c(C2C(C(=O)c3cccs3)=C(O)C(=O)N2c2cc(C)on2)c1` (centres undefined), the inhibition is 93.8%.

For the molecule `CCCCC1C(=O)N(c2ccccc2)N(c2ccccc2)C1=O`, the inhibition was 96.9%.

Take `CCOc1cccc(/C(O)=C2/C(=O)C(=O)N(CCOC)C2c2ccc(C)o2)c1` (centres undefined): the inhibition is 90.5%.

Consider `C=CCOc1ccc(C2C(C(=O)c3ccco3)=C(O)C(=O)N2Cc2cccnc2)cc1` (centres undefined), for which the inhibition is -0% (inactive).

`COCCCN1C(=O)C(O)=C(C(=O)c2ccco2)C1c1ccc(Br)cc1` (centres undefined): the inhibition was 39.8% (inactive).

Take `COc1ccccc1Oc1c(C)oc2cc(OC(=O)c3ccco3)ccc2c1=O`: the inhibition is 93.7%.

With `O=C(C1=C(O)C(=O)N(Cc2ccccc2)C1c1ccco1)c1ccco1` (centres undefined), the inhibition is 56.9% (inactive).

For `COC(=O)c1[nH]c(C)c(/C(O)=C2\C(=O)C(=O)N(CCN3CCOCC3)C2c2cccs2)c1C` (centres undefined), the inhibition was 93.9%.

`COCCCN1C(=O)C(=O)/C(=C(/O)c2ccccc2)C1c1ccc2c(c1)OCO2` (centres undefined): the inhibition is 101%.

As for `CC(C)CN(CC(C)C)C(=O)CS(=O)(=O)Cc1ccccc1`, the inhibition was -0% (inactive).

Regarding `Cc1[nH]n2c(=O)c3c(nc2c1-c1ccc(Cl)cc1)CCC3`, the inhibition was -0% (inactive).

Take `O=C(NC1CCCC1)c1sc(=S)n2c1[nH]c(=O)c1ccccc12`: the inhibition was 97%.

In the case of `COCCCN1C(=O)C(O)=C(C(=O)c2ccco2)C1c1cccc(Br)c1` (centres undefined), the inhibition is 90.9%.

With `O=C(C1=C(O)C(=O)N(Cc2ccccc2)C1c1ccncc1)c1ccco1` (centres undefined), the inhibition was -0% (inactive).

For `Cc1c(C(=O)NC2CCCc3ccccc32)oc2ccc(S(=O)(=O)N3CCOCC3)cc12` (centres undefined), the inhibition is 66.4% (inactive).

On to `COc1ccc(Cl)cc1-n1c(=S)sc2c(=O)[nH]c(SCC(=O)NCC3CCCO3)nc21` (centres undefined), for which the inhibition is 100%.

As for `Cc1ccsc1C1C2=C(CC(C)(C)CC2=O)Nc2ncnn21` (centres undefined), the inhibition was -0% (inactive).

For the molecule `COc1cc(C2C(C(=O)c3ccco3)=C(O)C(=O)N2CCc2ccccc2)ccc1O` (centres undefined), the inhibition is 98.8%.

With `COCCN1C(=O)C(O)=C(C(=O)c2cccs2)C1c1ccccc1` (centres undefined), the inhibition is 95.1%.

Consider `COc1ccc(OC)c(C2/C(=C(/O)c3ccccc3)C(=O)C(=O)N2Cc2ccco2)c1` (centres undefined), for which the inhibition is 38.1% (inactive).

As for `COc1ccccc1C1/C(=C(/O)c2ccccc2)C(=O)C(=O)N1CC(C)C` (centres undefined), the inhibition was 99%.

For the molecule `Cc1ccc(C2/C(=C(/O)c3ccc(Cl)cc3)C(=O)C(=O)N2CC2CCCO2)o1` (centres undefined), the inhibition was 15.5% (inactive).

Regarding `O=C1C(CCS(=O)c2ccccc2)C(=O)N(c2ccccc2)N1c1ccccc1` (centres undefined), the inhibition was -0% (inactive).
